Measured values published in the supplement of paper PMC4862054.
“And” between values parts separate entries of the source, which are not always exact repeats. Equal entries are not always repeated.

Experiments:
Settings in all cases: incubation time: 72 h
[1] = tested on: CAL-85-1; test: normalised viability (% of control), CellTiter-Blue; higher = more viable cells (about 100 = DMSO control)
Method: (§1)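 DSRT, CellTiter-Blue viability, 72 h incubation. Signal is normalised to DMSO and benzethonium chloride controls. Value is the normalised response at dose 7.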

[2] = tested on: CAL-148; test: as above
Method: as §1

[3] = tested on: DU-4475; test: as above
Method: as §1

[4] = tested on: CAL-51; test: as above
Method: as §1

[5] = tested on: MDA-MB-453; test: as above
Method: as §1

[6] = tested on: HDQ-P1; test: as above
Method: as §1

[7] = tested on: CAL-85-1; test: as above; remark: listed apart in the source
Method: (§2)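 DSRT, CellTiter-Blue viability, 72 h incubation. Signal is normalised to DMSO and benzethonium chloride controls. Value is the normalised response at dose 6.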

[8] = tested on: CAL-148; test: as above; remark: listed apart in the source
Method: as §2

[9] = tested on: DU-4475; test: as above; remark: listed apart in the source
Method: as §2

[10] = tested on: CAL-51; test: as above; remark: listed apart in the source
Method: as §2

[11] = tested on: MDA-MB-453; test: as above; remark: listed apart in the source
Method: as §2

[12] = tested on: MDA-MB-436; test: normalised response (% of control), CellTiter-Glo; higher = more viable cells (100 = DMSO, 0 = benzethonium chloride kill control)
Outline: (§3)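 Values are normalised signals, each belonging to one concentration of the series. Breast cancer cells (20 µl suspension) were seeded into 384-well plates with compound at 5 concentrations in 10-fold steps over a compound-specific 10,000-fold range and incubated 72 h. Readouts were CellTox Green fluorescence (485/520 nm), then CellTiter-Glo luminescence after 10 min at room temperature, with each plate set to 0.1 % DMSO as 100 and a positive kill control as 0.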

[13] = tested on: CAL-85-1; test: as above
Outline: as §3

[14] = tested on: CAL-148; test: as above
Outline: as §3

[15] = tested on: MDA-MB-468; test: as above
Outline: as §3

[16] = tested on: DU-4475; test: as above
Outline: as §3

[17] = tested on: MCF-10A; test: as above
Outline: as §3

[18] = tested on: BT-474; test: as above
Outline: as §3

[19] = tested on: MDA-MB-231; test: as above
Outline: as §3

[20] = tested on: CAL-51; test: as above
Outline: as §3

[21] = tested on: MDA-MB-453; test: as above
Outline: as §3

[22] = tested on: SK-BR-3; test: as above
Outline: as §3

[23] = tested on: MFM-223; test: as above
Outline: as §3

[24] = tested on: HCC1937; test: as above
Outline: as §3

[25] = tested on: HDQ-P1; test: as above
Outline: as §3

[26] = tested on: Hs578T; test: as above
Outline: as §3

[27] = tested on: CAL-120; test: as above
Outline: as §3

[28] = tested on: HCC1143; test: as above
Outline: as §3

[29] = tested on: BT-549; test: as above
Outline: as §3

[30] = tested on: HCC1599; test: as above
Outline: as §3

[31] = tested on: MDA-MB-436; test: normalised response (% of control), CellTox Green; higher = less cell death (100 = DMSO, 0 = benzethonium chloride kill control)
Outline: as §3

[32] = tested on: CAL-85-1; test: as above
Outline: as §3

[33] = tested on: CAL-148; test: as above
Outline: as §3

[34] = tested on: MDA-MB-468; test: as above
Outline: as §3

[35] = tested on: DU-4475; test: as above
Outline: as §3

[36] = tested on: MCF-10A; test: as above
Outline: as §3

[37] = tested on: BT-474; test: as above
Outline: as §3

[38] = tested on: MDA-MB-231; test: as above
Outline: as §3

[39] = tested on: CAL-51; test: as above
Outline: as §3

[40] = tested on: MDA-MB-453; test: as above
Outline: as §3

[41] = tested on: MFM-223; test: as above
Outline: as §3

[42] = tested on: HCC1937; test: as above
Outline: as §3

[43] = tested on: HDQ-P1; test: as above
Outline: as §3

[44] = tested on: Hs578T; test: as above
Outline: as §3

[45] = tested on: CAL-120; test: as above
Outline: as §3

[46] = tested on: HCC1143; test: as above
Outline: as §3

[47] = tested on: BT-549; test: as above
Outline: as §3

[48] = tested on: HCC1599; test: as above
Outline: as §3

`Cc1cccc(-c2nn3c(c2-c2ccnc4ccc(C(N)=O)cc24)CCC3)n1` (100 nM) showed a normalised viability [1] of 89.5%, a normalised viability [2] of 104% and a normalised viability [3] of 108%. The normalised viability [4] was 97.6%, the normalised viability [5] was 93.4% and the normalised viability [6] was 120%.
For `Cn1cc(CNCC2CCN(c3ncc(C(=O)NO)cn3)CC2)c2ccccc21` (100 nM), the normalised viability [1] was 16.6%, the normalised viability [2] was 3.75% and the normalised viability [3] was 12.3%. For the same compound, the normalised viability [4] was 36.7%, the normalised viability [5] was 2.32% and the normalised viability [6] was 33.5%.
Work on `O=C(NC[C@H](O)CO)c1ccncc1Nc1ccc(I)cc1F` (1000 nM) yielded a normalised viability [1] of 65.3%, a normalised viability [2] of 77.3% and a normalised viability [3] of 0.41%. The normalised viability [4] was 78.2%, the normalised viability [5] was 77.4% and the normalised viability [6] was 58.5%.
`Nc1nc(=O)c2c([nH]1)NCC(CNc1ccc(C(=O)N[C@@H](CCC(=O)O)C(=O)O)cc1)N2C=O` (mixture of isomers) [Folinic acid] (99 nM) was tested, and the normalised viability [1] was 87.2%, the normalised viability [2] was 97.8% and the normalised viability [3] was 104%. It also gave a normalised viability [4] of 93%, a normalised viability [5] of 103% and a normalised viability [6] of 134%.
`O=S(=O)(c1cccc2cnccc12)N1CCCNCC1` [Fasudil] (1000 nM) gave a normalised viability [1] of 101%, a normalised viability [2] of 90.7% and a normalised viability [3] of 120%. The normalised viability [4] was 115%, the normalised viability [5] was 101% and the normalised viability [6] was 111%.
With `CS(=O)(=O)N1CCN(Cc2cc3nc(-c4cccc5[nH]ncc45)nc(N4CCOCC4)c3s2)CC1` [GDC-0941] (1000 nM) the normalised viability [1] was 58.4%, the normalised viability [2] was 54% and the normalised viability [3] was 105%. The normalised viability [4] was 39.5%, the normalised viability [5] was 12% and the normalised viability [6] was 25%.
For `COc1nc(N)nc2c1ncn2[C@@H]1O[C@H](CO)[C@@H](O)[C@@H]1O` [Nelarabine] (300 nM), the normalised viability [7] was 100% and 97.8%, the normalised viability [8] was 88.9% and 89.2% and the normalised viability [9] was 113% and 116%. The normalised viability [10] was 101% and 97.9% and the normalised viability [11] was 102% and 99.1%.
`c1cc(CN2CCCNCCNCCCNCC2)ccc1CN1CCCNCCNCCCNCC1` [Plerixafor] (250 nM) gave a normalised viability [1] of 94.3%, a normalised viability [2] of 84.4% and a normalised viability [3] of 97.2%. It also gave a normalised viability [4] of 105%, a normalised viability [5] of 104% and a normalised viability [6] of 121%.
For `Cn1cc(CNCC2CCN(c3ncc(C(=O)NO)cn3)CC2)c2ccccc21` [Quisinostat] (10 nM), the normalised response [12] was 87.2%, the normalised response [13] was 72.5% and the normalised response [14] was 87.6%. The normalised response [15] was 91.2%, the normalised response [16] was 83.9% and the normalised response [17] was 78.8%. The normalised response [18] was 106%, the normalised response [19] was 103% and the normalised response [20] was 99.2%. The normalised response [21] was 56.9%, the normalised response [22] was 70.1% and the normalised response [23] was 103%. The normalised response [24] was 85.2%, the normalised response [25] was 75.4% and the normalised response [26] was 85.7%. For the same compound, the normalised response [27] was 86.2%, the normalised response [28] was 75.8% and the normalised response [29] was 88%. It also gave a normalised response [30] of 89.8%, a normalised response [31] of 92.3% and a normalised response [32] of 77.9%. It also gave a normalised response [33] of 95.8%, a normalised response [34] of 57.7% and a normalised response [35] of 97.8%. For the same compound, the normalised response [36] was 96.7%, the normalised response [37] was 93% and the normalised response [38] was 101%. It also gave a normalised response [39] of 126%, a normalised response [40] of 97.7% and a normalised response [41] of 103%. It also gave a normalised response [42] of 114%, a normalised response [43] of 109% and a normalised response [44] of 88.8%. It also gave a normalised response [45] of 91.4%, a normalised response [46] of 114% and a normalised response [47] of 95.5%. The normalised response [48] was 104%.
`CNC(=O)c1cc(Oc2ccc(NC(=O)Nc3ccc(Cl)c(C(F)(F)F)c3)cc2)ccn1` [Sorafenib] (10 nM) was tested, and the normalised response [12] was 105%, the normalised response [13] was 102% and the normalised response [14] was 107%. It also gave a normalised response [15] of 115%, a normalised response [16] of 101% and a normalised response [17] of 108%. For the same compound, the normalised response [18] was 97.8%, the normalised response [19] was 105% and the normalised response [20] was 95.9%. The normalised response [21] was 100%, the normalised response [22] was 103% and the normalised response [23] was 106%. The normalised response [24] was 95.2%, the normalised response [25] was 107% and the normalised response [26] was 98.8%. The normalised response [27] was 112%, the normalised response [28] was 102% and the normalised response [29] was 108%. It also gave a normalised response [30] of 108%, a normalised response [31] of 103% and a normalised response [32] of 102%. The normalised response [33] was 103%, the normalised response [34] was 97.8% and the normalised response [35] was 98.4%. The normalised response [36] was 66.7%, the normalised response [37] was 99.3% and the normalised response [38] was 108%. It also gave a normalised response [39] of 106%, a normalised response [40] of 106% and a normalised response [41] of 101%. For the same compound, the normalised response [42] was 66.5%, the normalised response [43] was 107% and the normalised response [44] was 95%. The normalised response [45] was 96%, the normalised response [46] was 95.9% and the normalised response [47] was 108%. For the same compound, the normalised response [48] was 91.9%.
With `CCN(CC)CCNC(=O)c1c(C)[nH]c(/C=C2\C(=O)Nc3ccc(F)cc32)c1C` [Sunitinib] (10 nM) the normalised response [12] was 96.9%, the normalised response [13] was 103% and the normalised response [14] was 106%. For the same compound, the normalised response [15] was 102%, the normalised response [16] was 104% and the normalised response [17] was 98.5%. For the same compound, the normalised response [18] was 101%, the normalised response [19] was 107% and the normalised response [20] was 98.8%. For the same compound, the normalised response [21] was 97.4%, the normalised response [22] was 101% and the normalised response [23] was 105%. It also gave a normalised response [24] of 99.2%, a normalised response [25] of 99.3% and a normalised response [26] of 103%. For the same compound, the normalised response [27] was 109%, the normalised response [28] was 108% and the normalised response [29] was 108%. It also gave a normalised response [30] of 96.3%, a normalised response [31] of 103% and a normalised response [32] of 89.5%. The normalised response [33] was 105%, the normalised response [34] was 141% and the normalised response [35] was 98.4%. The normalised response [36] was 109%, the normalised response [37] was 100% and the normalised response [38] was 104%. It also gave a normalised response [39] of 108%, a normalised response [40] of 107% and a normalised response [41] of 98%. It also gave a normalised response [42] of 66.9%, a normalised response [43] of 111% and a normalised response [44] of 82.4%. For the same compound, the normalised response [45] was 99.3%, the normalised response [46] was 57.7% and the normalised response [47] was 92.9%. For the same compound, the normalised response [48] was 114%.
